Test results: patent publication US20190209539A1, “THIOHYDANTOIN ANDROGEN RECEPTOR ANTAGONISTS FOR THE TREATMENT OF CANCER” (Janssen Pharmaceutica NV, priority 2016, published 2019)
Values joined by “and” are separate entries in the source; they are usually repeats but may differ in a detail not shown here. Identical values can stand only once.

Columns and labels:
LNCaP WT = test: LNCaP Proliferation Assay (LNCaP WT); format: cell-based; settings: Homo sapiens, 96 h, 4 days, normalized to 0.1 nM R1881 stimulation
Experimental: (§1) LNCaP cells were expanded in RPMI 10% FBS in T150 flasks. The cells were dislodged with 0.25% Trypsin, washed in complete media, centrifuged (300 g, 3 min), and the supernatant aspirated. The cells were resuspended in RPMI phenol-red free media with 1% charcoal-stripped serum (CSS) and counted using a ViCELL (Beckman-Coulter). 7500 cells were added to each well of a white optical bottom 384-well plate and incubated for 2 days at 37° C. 5% CO2. Compound dilutions were prepared in RPMI CSS using 50 mM stock solutions and added to the cells either alone (agonist mode) or in combination with 0.1nM R1881 (antagonist mode). The plates were incubated for 4 days, followed by addition of CellTiter-Glo Luminescent Cell Viability kit reagent (Promega). The plates were placed on a shaker at 3000 rpm for 10 minutes and then read on an EnVision plate reader (Perkin Elmer) using Luminescence assay default settings. The data was analyzed, normalized to 0.1 nM R1881 stimulation, and plotted in GraphPad Prism.

GR (human) = molecular target: T1, GR (human) (Homo sapiens, UniProt P04150); test: Radioligand binding to GR ([3H]dexamethasone, IM-9 cells cytosol)
T1 construct: GR (human) (agonist radioligand) IM-9 cells (cytosol); endogenous in cells; host or cells: IM-9 cells (cytosol)
T1 sequence (P04150 1-777): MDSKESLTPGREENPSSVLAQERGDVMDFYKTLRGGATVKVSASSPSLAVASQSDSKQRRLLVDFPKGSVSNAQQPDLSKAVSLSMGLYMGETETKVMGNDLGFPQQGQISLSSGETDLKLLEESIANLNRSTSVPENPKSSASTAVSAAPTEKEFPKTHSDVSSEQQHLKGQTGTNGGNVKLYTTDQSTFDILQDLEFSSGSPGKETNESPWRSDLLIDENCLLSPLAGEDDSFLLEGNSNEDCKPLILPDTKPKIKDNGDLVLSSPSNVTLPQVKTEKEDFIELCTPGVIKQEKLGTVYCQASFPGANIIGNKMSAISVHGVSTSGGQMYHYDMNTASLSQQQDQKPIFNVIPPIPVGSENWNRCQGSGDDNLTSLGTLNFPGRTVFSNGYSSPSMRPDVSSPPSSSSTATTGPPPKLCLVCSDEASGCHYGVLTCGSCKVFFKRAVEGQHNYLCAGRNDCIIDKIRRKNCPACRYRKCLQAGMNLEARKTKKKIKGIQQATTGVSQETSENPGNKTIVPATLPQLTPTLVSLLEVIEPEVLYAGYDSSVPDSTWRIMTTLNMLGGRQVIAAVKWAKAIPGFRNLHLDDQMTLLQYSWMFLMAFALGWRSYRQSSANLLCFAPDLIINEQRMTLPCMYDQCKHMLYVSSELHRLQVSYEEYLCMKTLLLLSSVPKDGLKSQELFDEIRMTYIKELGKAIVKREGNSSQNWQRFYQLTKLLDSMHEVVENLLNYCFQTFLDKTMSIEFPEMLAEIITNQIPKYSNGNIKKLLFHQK
Experimental: Radioligand binding assays were performed with the cell extracts and ligands as detailed below. Complete methodology is contained within the cited publications. Kd values were determined by Non-Specific Incubation Detection Method.
GR (human) (agonist radioligand) IM-9 cells (cytosol) [^3H]dexamethasone 1.5 nM 1.5 nM triamcinolone (10 μM) 6 h 4° C. Scintillation counting (Clark, A. F et al. (1996) Invest. Ophtalmol. Vis. Sci., 37: 805-813). ER (nonselective) (human) (agonist radioligand) MCF-7 cells (cytosol) [^3H]estradiol 0.4 nM 0.2 nM 17-β-estradiol (6 μM) 20 h 4° C. Scintillation counting (Parker, G. J et al.(2000) J. Biomol. Screen., 5: 77-88).
The results are expressed as a percent of control specific binding measured specific binding *100 control specific binding and as a percent inhibition of control specific binding 100-(measured specific binding*100) control specific binding obtained in the presence of compoundn.
The IC50 values (concentration causing a half-maximal inhibition of control specific binding) and Hill coefficients (nH) were determined by non-linear regression analysis of the competition curves generated with mean replicate values using Hill equation curve fitting.
The inhibition constants (Ki) were calculated using the Cheng Prusoff equation:
wherein L=concentration of radioligand in the assay, and KD=affinity of the radioligand for the receptor. […]

VCaP cells = test: Prostate Cancer Cell Viability Assay-VCaP; format: cell-based; settings: Homo sapiens, 120 h, 5 days incubation, CellTiter-Glo
Experimental: VCaP cells were counted and seeded into black 384-well plates with clear bottoms at a concentration of 125,000 cells per mL in phenol red-free DMEM containing 10% Charcoal Stripped Serum. 16 μL of the suspension was added per well and incubated for 48 h to allow the cells to adhere. After 48 hours, a 12 point serial semilog dilution of each compound was added to the cells in 16 μL at a final concentration of 100 μM to 0.0003 μM. The compounds of Formula (I) were also run in antagonist mode using 30 pM R1881 in which 8 μL of the compound was added to the cells followed by 8 μL of R1881. After 5 days of incubation at 37° C., 16 μL Of CellTiter-Glo (Promega) was added to the cells and the relative luminescence units (RLUs) of each well determined using the Envision. The percent stimulation and % inhibition were determined for each sample and plotted using GraphPad Prism.

rGABA-gated Cl− channel = test: GABA-gated Cl Channel Antagonist Radioligand Binding Assay ([35S]-TBPS, cerebral cortex membranes); parameters: species or system rat; settings: 3 nM [35S]-TBPS
Experimental: GABA-gated Cl Chanel assays were performed at CEREP according to the following method. Membrane homogenates of cerebral cortex (120 μg protein) were incubated for 120 min at 22° C. with 3 nM [^35S]-TBPS in the absence or presence of the test compound in a buffer containing 50 mM Na2HPO4/KH2PO4 (pH 7.4) and 500 mM NaCl. Nonspecific binding was determined in the presence of 20 μM picrotoxinin. Following incubation, the samples were filtered rapidly under vacuum through glass fiber filters (GF/B, Packard) presoaked with 0.3% PEI and rinsed several times with ice-cold 50 mM Tris-HCl using a 96-sample cell harvester (Unifilter, Packard). The filters were dried then counted for radioactivity in a scintillation counter (Topcount, Packard) using a scintillation cocktail (Microscint 0, Packard). The results are expressed as a percent inhibition of the control radio ligand specific binding. The standard reference compound is picrotoxinin, which was tested in each experiment at several concentrations to obtain a competition curve from which its ICso was calculated. In this assay, the following representative compounds disclosed herein had recorded activities at a 10 μM single point concentration in the GABA-gated Cl-Channel Binding Assay.

LNCaP F876L = test: LNCaP Proliferation Assay (LNCaP F876L); format: cell-based; settings: Homo sapiens, 96 h, 4 days, normalized to 0.1 nM R1881 stimulation
Experimental: as §1

Ki (GR (human); Cheng Prusoff, [3H]-dexamethasone): 9.9 µM | IC50 (GR (human); [3H]-dexamethasone 1.5 nM, IM-9 cytosol): 20 µM | IC50 (VCaP cells): 0.076 µM | IC50 (rGABA-gated Cl− channel): 13 µM | % inhibition @ 10 μM (rGABA-gated Cl− channel; 10 μM single point): 42% and 49%
SMILES: CN1CCC(Oc2ccc(N3C(=S)N(c4cnc(C#N)c(C(F)(F)F)c4)C(=O)C34CCC4)cc2)CC1 [Cpd 85, 5-[8-[4-[(1-methyl-4-piperidyl)oxy]phenyl]-5-oxo-7-thioxo-6,8-diazaspiro[3.4]octan-6-yl]-3-(trifluoromethyl)pyridine-2-carbonitrile]
IC50 (LNCaP WT): 3.29 µM | IC50 (LNCaP F876L): 8.87 µM
